The results in this text go back to US8410112B2, “Compounds useful as inhibitors of ATR kinase” (Vertex Pharmaceuticals Incorporated, priority 2008, dated 2013).

A value given as a limit tells only on which side of the number the result lay.

In the assay the target is T1, full-length ATR (Homo sapiens, UniProt Q13535).
T1 construct: in the presence of 5 nM full-length ATR
T1 sequence (Q13535 whole entry): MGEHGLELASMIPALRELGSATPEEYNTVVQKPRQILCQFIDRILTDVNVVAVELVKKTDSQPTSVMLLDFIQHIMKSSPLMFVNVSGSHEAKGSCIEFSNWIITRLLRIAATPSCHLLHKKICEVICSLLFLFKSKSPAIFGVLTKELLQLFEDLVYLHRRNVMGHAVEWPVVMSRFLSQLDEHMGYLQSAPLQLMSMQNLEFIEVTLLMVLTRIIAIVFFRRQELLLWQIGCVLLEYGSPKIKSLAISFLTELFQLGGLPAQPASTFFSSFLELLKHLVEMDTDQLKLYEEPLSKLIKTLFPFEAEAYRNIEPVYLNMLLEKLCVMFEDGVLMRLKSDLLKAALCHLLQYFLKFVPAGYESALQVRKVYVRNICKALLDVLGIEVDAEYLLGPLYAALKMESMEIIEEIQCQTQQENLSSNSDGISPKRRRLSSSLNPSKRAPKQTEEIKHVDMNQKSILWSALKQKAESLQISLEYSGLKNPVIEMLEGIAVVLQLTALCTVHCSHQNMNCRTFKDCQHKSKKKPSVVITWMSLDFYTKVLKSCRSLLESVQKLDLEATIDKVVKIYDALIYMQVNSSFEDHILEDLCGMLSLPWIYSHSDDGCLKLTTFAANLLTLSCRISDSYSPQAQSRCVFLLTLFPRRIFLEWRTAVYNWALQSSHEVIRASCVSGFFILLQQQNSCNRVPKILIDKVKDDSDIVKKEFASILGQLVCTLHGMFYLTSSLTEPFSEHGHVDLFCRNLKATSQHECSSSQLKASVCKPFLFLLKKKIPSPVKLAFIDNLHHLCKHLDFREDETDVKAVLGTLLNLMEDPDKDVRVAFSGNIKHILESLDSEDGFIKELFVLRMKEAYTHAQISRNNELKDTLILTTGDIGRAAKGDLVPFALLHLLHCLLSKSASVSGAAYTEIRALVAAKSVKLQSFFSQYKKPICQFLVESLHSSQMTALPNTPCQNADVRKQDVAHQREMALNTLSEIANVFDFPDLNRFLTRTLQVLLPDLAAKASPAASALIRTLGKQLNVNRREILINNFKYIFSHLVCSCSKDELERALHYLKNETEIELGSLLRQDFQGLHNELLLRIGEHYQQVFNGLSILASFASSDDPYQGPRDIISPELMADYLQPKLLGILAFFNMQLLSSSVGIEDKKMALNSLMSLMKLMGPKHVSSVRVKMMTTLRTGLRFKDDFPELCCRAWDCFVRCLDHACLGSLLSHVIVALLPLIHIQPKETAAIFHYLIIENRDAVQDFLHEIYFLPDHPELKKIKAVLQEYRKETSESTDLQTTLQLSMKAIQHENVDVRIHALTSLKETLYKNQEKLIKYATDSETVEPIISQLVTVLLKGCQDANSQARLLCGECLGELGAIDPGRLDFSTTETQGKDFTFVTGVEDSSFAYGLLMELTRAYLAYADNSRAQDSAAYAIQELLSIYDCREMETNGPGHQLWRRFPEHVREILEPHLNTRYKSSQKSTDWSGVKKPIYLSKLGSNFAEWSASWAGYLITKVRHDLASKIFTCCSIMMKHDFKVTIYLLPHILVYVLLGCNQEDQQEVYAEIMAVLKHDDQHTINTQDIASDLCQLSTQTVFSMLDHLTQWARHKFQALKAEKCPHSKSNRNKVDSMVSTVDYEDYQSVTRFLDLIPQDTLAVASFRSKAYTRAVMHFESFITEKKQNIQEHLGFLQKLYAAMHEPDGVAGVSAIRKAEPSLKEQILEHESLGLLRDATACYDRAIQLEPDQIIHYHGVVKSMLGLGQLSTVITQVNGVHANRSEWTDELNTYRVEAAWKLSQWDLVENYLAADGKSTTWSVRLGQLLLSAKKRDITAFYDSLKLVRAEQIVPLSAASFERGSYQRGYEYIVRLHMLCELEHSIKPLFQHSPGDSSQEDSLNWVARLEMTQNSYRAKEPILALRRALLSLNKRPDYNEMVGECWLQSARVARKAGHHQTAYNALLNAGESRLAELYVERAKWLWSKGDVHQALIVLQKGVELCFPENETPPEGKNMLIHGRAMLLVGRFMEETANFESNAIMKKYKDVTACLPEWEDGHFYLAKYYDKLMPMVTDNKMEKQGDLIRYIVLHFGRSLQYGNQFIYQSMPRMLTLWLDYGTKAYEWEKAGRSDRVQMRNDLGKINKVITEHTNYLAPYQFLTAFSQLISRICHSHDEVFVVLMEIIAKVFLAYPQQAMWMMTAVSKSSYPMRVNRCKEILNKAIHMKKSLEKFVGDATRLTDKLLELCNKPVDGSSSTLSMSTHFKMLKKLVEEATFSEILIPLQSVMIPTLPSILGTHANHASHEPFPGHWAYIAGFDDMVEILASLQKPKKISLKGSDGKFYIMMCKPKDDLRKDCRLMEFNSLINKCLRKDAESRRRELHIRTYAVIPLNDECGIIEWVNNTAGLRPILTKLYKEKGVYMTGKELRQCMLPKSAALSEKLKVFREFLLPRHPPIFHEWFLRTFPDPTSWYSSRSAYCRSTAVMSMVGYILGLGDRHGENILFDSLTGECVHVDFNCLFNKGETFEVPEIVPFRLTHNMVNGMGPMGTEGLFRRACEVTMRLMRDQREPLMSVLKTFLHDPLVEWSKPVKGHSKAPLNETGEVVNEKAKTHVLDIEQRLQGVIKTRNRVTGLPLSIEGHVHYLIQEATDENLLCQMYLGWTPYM
Nature of the assay: ATR Inhibition Assay (radioactive-phosphate incorporation). It counts as biochemical. The note with it: Ki(app); 5 nM full-length ATR, 10 μM ATP, 800 μM target peptide, 25° C. The method in brief: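 After a 10-min pre-incubation of compound with 5 nM enzyme at 25 °C, ATP was added to start the reaction (final 10 μM [γ-33P]ATP, 800 μM peptide; Tris/HCl pH 7.5, MgCl2, DTT), which ran 24 h. Incorporated 33P was captured on phosphocellulose filters, and Ki(app) was fitted by non-linear regression.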
With `Nc1ncc(C2=CCN(C(=O)c3c(F)cccc3F)CC2)nc1-c1nc2ccccc2[nH]1` [Compound I-215, (4-(5-amino-6-(1H-benzo[d]imidazol-2-yl)pyrazin-2-yl)-5,6-dihydropyridin-1(2H)-yl)(2,6-difluorophenyl)methanone], the Ki is less than 100 nM.
For `CCC(=O)N1CCC(c2cnc(N)c(-c3nnc(-c4ccc(CNC)cc4)o3)n2)CC1` [Compound I-353, 1-(4-(5-Amino-6-(5-(4-((methylamino)methyl)phenyl)-1,3,4-oxadiazol-2-yl)pyrazin-2-yl)piperidin-1-yl)propan-1-one] the value was 100 to 1000 nM.
With `Nc1ncc(N2CCN(C(=O)N3CCOCC3)CC2)nc1-c1nnc(-c2ccccc2)o1` [Compound I-216, (4-(5-amino-6-(5-phenyl-1,3,4-oxadiazol-2-yl)pyrazin-2-yl)piperazin-1-yl)(morpholino)methanone], the Ki was 100 to 1000 nM.
The same measure for `Cn1cnc(S(=O)(=O)N2CC=C(c3cnc(N)c(-c4nnc(-c5ccccc5)o4)n3)CC2)c1` [Compound I-120, 5-(1-(1-methyl-1H-imidazol-4-ylsulfonyl)-1,2,3,6-tetrahydropyridin-4-yl)-3-(5-phenyl-1,3,4-oxadiazol-2-yl)pyrazin-2-amine]: less than 100 nM.
For `CCS(=O)(=O)N1CCN(c2cnc(N)c(-c3nnc(Nc4ccccc4)o3)n2)CC1` [Compound I-69, 5-(3-amino-6-(4-(ethylsulfonyl)piperazin-1-yl)pyrazin-2-yl)-N-phenyl-1,3,4-oxadiazol-2-amine] the value was 100 to 1000 nM; for `COCC(=O)N[C@H]1CCN(c2cnc(N)c(-c3nc4ccccc4[nH]3)n2)C1` [Compound I-182, (S)-N-(1-(5-amino-6-(1H-benzo[d]imidazol-2-yl)pyrazin-2-yl)pyrrolidin-3-yl)-2-methoxyethanamide], 1000 to 10000 nM.
On to `CCS(=O)(=O)N1CC2CN(c3cnc(N)c(-c4nc5ccccc5[nH]4)n3)CC2C1` (centres unmarked) [Compound I-295, 3-(1H-benzimidazol-2-yl)-5-(2-ethylsulfonyl-1,3,3a,4,6,6a-hexahydropyrrolo[3,4-c]pyrrol-5-yl)pyrazin-2-amine], for which the Ki was 1000 to 10000 nM.
The same measure for `Nc1ncc(N2CCN(S(=O)(=O)Cc3ccccc3)CC2)nc1-c1nnc(-c2ccccc2)o1` [Compound I-99, 5-(4-(benzylsulfonyl)piperazin-1-yl)-3-(5-phenyl-1,3,4-oxadiazol-2-yl)pyrazin-2-amine]: 100 to 1000 nM; for `CCS(=O)(=O)N1CCN(c2cnc(N)c(-c3cc(-c4ccccc4)ncn3)n2)CC1` [Compound I-74, 5-(4-(ethylsulfonyl)piperazin-1-yl)-3-(6-phenylpyrimidin-4-yl)pyrazin-2-amine]: 100 to 1000 nM.
For the compound `Nc1ncc(C2=CCN(C(=O)COc3ccccc3)CC2)nc1-c1nc2ccccc2[nH]1` [Compound I-137, 1-(4-(5-amino-6-(1H-benzo[d]imidazol-2-yl)pyrazin-2-yl)-5,6-dihydropyridin-1(2H)-yl)-2-phenoxyethanone], the Ki lay in the range of 100 to 1000 nM.
In the case of `Nc1ncc(C2=CCN(c3ccccc3)CC2)nc1-c1nc2ccccc2[nH]1` [Compound I-159, 3-(1H-benzo[d]imidazol-2-yl)-5-(1-phenyl-1,2,3,6-tetrahydropyridin-4-yl)pyrazin-2-amine], the Ki was in the range of 100 to 1000 nM.
For `Nc1ncc(N2CCN(C(=O)C3CCOCC3)CC2)nc1C(=O)Nc1ccccn1` [Compound I-230, 3-amino-N-(pyridin-2-yl)-6-(4-(tetrahydro-2H-pyran-4-carbonyl)piperazin-1-yl)pyrazine-2-carboxamide] the value was 1000 to 10000 nM.
As for `Nc1ncc(N2CCN(C(=O)c3ccccn3)CC2)nc1C(=O)Nc1ccccn1` [Compound I-148, 3-amino-N-(pyridin-2-yl)-6-(4-(pyridine-2-carbonyl)piperazin-1-yl)pyrazine-2-carboxamide], the Ki fell in the range of 1000 to 10000 nM.
On to `Nc1ncc(-n2ccc(=O)cc2)nc1-c1nc2ccccc2[nH]1` [Compound I-311, 1-[5-amino-6-(1H-benzimidazol-2-yl)pyrazin-2-yl]pyridin-4-one], for which the Ki is less than 100 nM.
